This is an account of results in patent US20120121691A1, “Method for Increasing the Production of a Specific ACYL-Chain Dihydroceramide(s) for Improving the Effectiveness of Cancer Treatments” (priority 2010, published 2012).

“Also recorded” adds a separate entry of the source.

Data set [1] relates to MCF-7 breast cancer cells. The data set is described as follows: DIMSCAN cytotoxicity assay, MCF-7. In kind it is cell-based. Particulars: MCF-7, fatty acid 5 micromolar. The text has this: (§1) Cell culture. The pre-T acute lymphoblastic leukemia cell lines MOLT-4 and CCRF-CEM, small cell lung cancer cell line NCI-H146, non-small cell lung cancer cell line NCI-H1792, colon cancer cell lines LoVo and HT-29, and breast cancer cell line MCF-7, were purchased from American Type Culture Collection, Manassas, Va., and grown at 20%/5% and 5%/5%, respectively. COG-LL-317 and COG-LL-332 pre-T acute lymphoblastic leukemia cell lines were obtained from the TTUHSC Cancer Center Cell Repository and grown at 5%/5%. Cell line identities were verified by short tandem repeat analysis and mycoplasma testing was performed. Cell lines were maintained in RPMI-1640 medium supplemented with 10% fetal bovine serum (FBS, Invitrogen) in humidified, 37° C. incubators. For all experiments, ALL cell lines were seeded at 2. cells/mL in RPMI-1640 medium supplemented with 15% fetal bovine serum. Solid tumor cell lines were plated at 5×cells/mL in RPMI-1640 medium supplemented with 10% fetal bovine serum.
(§2) Cytotoxicity Assay. Cytoxicity is determined using the DIMSCAN assay system (R. Proffitt et al., Cytometry 24, 204-213 (1996); T. Frgala et al., Proc. AACR, 36, 303 (1995). The system employs digital imaging microscopy to quantify viable cells, which selectively accumulate fluorescein diacetate to become brightly fluorescent. The system is capable of measuring cytotoxicity over a 4-5 log dynamic range by quenching the residual fluorescence of dead and dying cells with eosin Y and quantifying the total fluorescence of viable cells using digital thresholding. Measured fluorescence is directly proportionate to the number of viable cells. A comparison of the total fluorescence of a drug-treated cell population to the fluorescence of a similar number of untreated cells yields a survival fraction.
(§3) In brief, 5,000 to 25,000 cells/well depending on the cell line (5,000 for solid tumor, 25,000 for ALL cell lines) were replicate plated into 60 wells of a 96-well tissue culture plate in 0.1 cc media and allowed to attach or recover overnight. […]

The test system of another data set is LoVo colon cancer cells. The data set is described as follows: DIMSCAN cytotoxicity assay, LoVo. In kind it is cell-based, human. Particulars: fatty acid 5 micromolar.
Source text: as §1
as §2, with “cells.” for “cells. A comparison of the total fluorescence of a drug-treated cell population to the fluorescence of a similar number of untreated cells yields a survival fraction.”
(§4) In brief, 5,000 to 25,000 cells/well depending on the cell line (5,000 for solid tumor, 25,000 for ALL cell lines) were replicate plated into 60 wells of a 96-well tissue culture plate in 0.1 cc media and allowed to attach or recover overnight. Drug(s) are then added in 0.05 cc media to the final concentrations indicated. […] Total fluorescence of viable cells is then measured by digital imaging microscopy and the signal normalized to control cells. […]

The test system of the next data set is reactive oxygen species. Description: Reactive oxygen species generation. In kind it is cell-based, human. Particulars: C22:0-fatty acid with sphinganine plus GT-11.
The test system of data set [2] is NCI-H146 small cell lung cancer cells. The data set is described as follows: DIMSCAN cytotoxicity assay, NCI-H146. In kind it is cell-based, human. Particulars: NCI-H146, fatty acid 5 micromolar.
Source text: as §1
as §2, with “cells.” for “cells. A comparison of the total fluorescence of a drug-treated cell population to the fluorescence of a similar number of untreated cells yields a survival fraction.”
as §4

For data set [3], the system named is pre-T acute lymphoblastic leukemia cell lines CCRF-CEM, MOLT-4, COG-LL-317 and COG-LL-332. Description: DIMSCAN cytotoxicity assay across the four pre-T ALL cell lines. The conditions noted are these: COG-LL-317, COG-LL-332, CCRF-CEM, 4-HPR 0-9 μM, 48 hours. In kind it is cell-based, human.
Source text: as §1, with “For all experiments, ALL cell lines were seeded at 2. cells/mL in RPMI-1640 medium supplemented with 15% fetal bovine serum. Solid tumor cell lines were plated at 5×cells/mL in RPMI-1640 medium supplemented with 10% fetal bovine serum.” left out
as §2, with “A comparison of the total fluorescence of a drug-treated cell population to the fluorescence of a similar number of untreated cells yields a survival fraction.” left out

Data set [4] relates to NCI-H1792 non-small cell lung cancer cells. Description: DIMSCAN cytotoxicity assay, NCI-H1792. In kind it is cell-based. The conditions noted are these: NCI-H1792, fatty acid 5 micromolar.
Source text: as §1, §2, §3

A further data set relates to CCRF-CEM cells. The data set is described as follows: DIMSCAN cytotoxicity assay, CCRF-CEM. In kind it is cell-based. The conditions noted are these: 48 hours.
Source text: as §1, with “For all experiments, ALL cell lines were seeded at 2. cells/mL in RPMI-1640 medium supplemented with 15% fetal bovine serum. Solid tumor cell lines were plated at 5×cells/mL in RPMI-1640 medium supplemented with 10% fetal bovine serum.” left out
as §2, with “A comparison of the total fluorescence of a drug-treated cell population to the fluorescence of a similar number of untreated cells yields a survival fraction.” left out

Turning to `CCCCCCCCCCCCCCCCCCCCCC(=O)O` [C22:0-fatty acid], the “effect of fatty acid on fenretinide cytotoxicity” value (in data set [1]; in the data set on LoVo colon cancer cells; in data set [2]; in data set [4]) was “increased fenretinide cytotoxicity” each time. Moreover, the “increase of reactive oxygen species” value in the data set with reactive oxygen species is “not observed”. Besides, the “effect of fatty acid on fenretinide (4-HPR) cytotoxicity” value in data set [3] is “enhanced; also recorded: significantly increased cytotoxicity”.

As for `CCCCCCCC/C=C\CCCCCCCCCCCC(=O)O` [C22:1-fatty acid], the “effect of fatty acid addition on sphinganine/GT-11 cytotoxicity” value in the data set with CCRF-CEM cells is “did not impart any additional cytotoxicity”.
